Values quoted from earlier work, collected in US20230023005A1, “IMPROVING THE PERFORMANCE OF PIGMENT-BASED DYES BY USING A PRETREAMENT AGENT” (Henkel AG & Co. KGaA, priority 2019, published 2023).

Legend:
[1] = 25° C.
[2] = 5% solution in water

pH value of solution in water [2]	SMILES	solubility in water [1]
	O=C([O-])c1c(Cl)c(Cl)c(Cl)c(Cl)c1-c1c2c(Br)cc(=O)c(Br)c-2oc2c(Br)c(O)cc(Br)c12.O=C([O-])c1c(Cl)c(Cl)c(Cl)c(Cl)c1-c1c2c(Br)cc(=O)c(Br)c-2oc2c(Br)c(O)cc(Br)c12.[Na+].[Na+] [Acid Red 92, disodium salt of 3,4,5,6-tetrachloro-2-(1,4,5,8-tetrabromo-6-hydroxy-3-oxoxanthen-9-yl)benzoic acid]	greater than 10 g/L
	O=C([O-])C1=NN(c2ccc(S(=O)(=O)[O-])cc2)C(=O)C1N=Nc1ccc(S(=O)(=O)[O-])cc1.[Na+].[Na+].[Na+] (centres unmarked) [Acid Yellow 23, trisodium salt of 4,5-dihydro-5-oxo-1-(4-sulfophenyl)-4-((4-sulfophenyl)azo)-1H-pyrazole-3-carboxylic acid]	highly soluble in water
	Nc1cc(S(=O)(=O)[O-])cc2cc(S(=O)(=O)[O-])c(N=Nc3ccccc3)c(O)c12.[Na+].[Na+] [Acid Red 33, diantrium salt of 5-amino-4-hydroxy-3-(phenylazo)-naphthalene-2,7-disulphonate]	2500 µg/mL
	O=S(=O)([O-])c1ccc(N=Nc2c(O)ccc3ccccc23)cc1.[Na+] [Acid Orange 7, sodium salt of 4-[(2-hydroxy-1-naphthyl)azo]benzene sulphonate]	more than 7 g/L
4.4	O=P([O-])(O)O.[K+] [Potassium dihydrogen phosphate]	
